pEC50: −log10 of the molar value. Where two headings read alike, the source gives them in different places.
How the values were obtained:
pancreatic cancer cells = conditions: background, reported; cited from earlier work
[1] = system: HepG2 (liver human hepatocellular carcinoma) cell line; assay: Cell viability assay (Cell Titer Glo), growth inhibition; type: cell-based
Experimental: (§1) Growth inhibition of the compound comprises in the invention was tested in vitro using human cancer cell cultures
(§2) HepG2 (liver human hepatocellular carcinoma), BxPC3 and Capan-2 (adenocarcinomas), A549 (lung carcinoma), HCT-116 (colorectal carcinoma) and MCF-7 (breast tumor) cell lines were obtained from ATCC. The HepG2, BxPC3, Capan-2 and MCF-7 cells were placed into 75 ccm^3 tissue culture flasks and grown at 37° C. under a humidified 5% CO2 atmosphere in EMEM and RPMI-1640 medium respectively with 10% fetal bovine serum and 2% penicillin-streptomycin. Trypsin (0.05%) was used to detach cells from the bottom of flask.
(§3) Cells were plated in 96 well plates at a density of 10^4 cells/well and grown for 24 h. Cells were treated with different concentrations of the test compounds or vehicle alone (DMSO) and grown at 37° C. under a humidified 5% CO2 atmosphere. Their corresponding medium was used to dilute the 10 mM stocks of each compound to obtain 1 mM stock solutions and subsequently, the treatment concentrations. After 96 hours of incubation, the plates were equilibrated at room temperature for 30 minutes, […] of Cell Titer Glo® Luminometric Cell Viability Assay reagent (Promega) was added into each well, put on an orbital shaker for 2 minutes and incubated for 10 minutes at room temperature. The plate was transferred to a luminometer (Glomax Promega) and the luminescent signal was recorded. Each treatment at different concentration and the control group were triplicates or duplicates.
(§4) This is a homogeneous method to determine the number of viable cells in culture based on quantification of the ATP present which signals the presence of metabolically active cells.

[2] = system: BxPC3 (pancreas adenocarcinoma) cell line; assay: as above; type: cell-based, human
Experimental: as §1, §2, §3, §4

[3] = system: Capan-2 (pancreas adenocarcinoma) cell line; assay: as above; type: cell-based, human
Experimental: as §1, §2, §3, §4

Panc-1 (pancreas) cells = assay: Growth inhibition in cancer cell lines (FIG. 5); type: cell-based, human; conditions: KRAS mutation
Description: Molecules such as LCB-2151 and LCB-2132 (Group B) and LCB-2179 (Group C) indeed show antiproliferative activities against cancer cell lines with KRAS mutations. FIG. 5 presents the activity of LCB-2151, LCB-2179, LCB-2132 and Gemcitabine in different cancer cell lines. Most liver and pancreas cell lines have the KRAS protein (oncogene identified in Kiersten rat sarcoma virus), which alters its signal transduction pathway, are resistant to Gemcitabine. […] Both HepG-2 (liver) and Panc-1 (pancreas) have the KRAS mutation and are resistant to Gemcitabine.
as §3

[4] = system: HCT-116 (colorectal carcinoma) cell line; assay: Cell viability assay (Cell Titer Glo), growth inhibition; type: cell-based; conditions: Homo sapiens, 96 hours of incubation, read-out: Growth Inhibition (%) At 20 μM, HCT-116 (Colon)
Experimental: as §1, §2, §3, §4

[5] = system: MCF-7 (breast tumor) cell line; assay: as above; type: cell-based; conditions: Homo sapiens, MCF7, 96 hours of incubation
Experimental: as §1, §2, §3, §4

[6] = system: A549 (lung carcinoma) cell line; assay: as above; type: cell-based; conditions: Homo sapiens, 96 hours of incubation
Experimental: as §1, §2, §3, §4

[7] = system: KRAS mutated human pancreatic and liver cancer cell lines (HepG-2, Panc-1, Capan-2); assay: Activity in KRAS mutated, Gemcitabine-resistant cancer cell lines; type: cell-based
Experimental: Liver and pancreatic cancer patients have an extremely poor survival rate (Table 1).
as §3

HCMV/AD169 = assay: Antiviral effect, cytopathic effect (CPE) of HCMV in HFF cells; type: cell-based, Human cytomegalovirus (HCMV)
Experimental: (§5) Table 4 presents results for Human cytomegalovirus (HCMV), which causes serious diseases in immune compromised hosts, particularly for transplantation recipient. Cytopathic effect (CPE) of A1-169 HMCV variant virus was measured using Human fibroblast cell lines (HFF). Cell titer were measured using Cellglo assay and luminescence in presence or absence of group A of molecules. […] 90% reduction of viral load was attained at 0.25 μM and no cell death was measured in presence of 150 μM of the tested compound, testifying of its lack of intrinsic cell toxicity. Ganciclovir the clinical gold standard in the treatment of HCMV has bee reported as active against the same strand at 1 to 3 μM.

[8] = Cell toxicity in the HCMV assay (Cellglo, luminescence); type: cell-based, human; conditions: human, human fibroblast cell lines (HFF); HFF cells
Experimental: as §5

[9] = system: Human fibroblast cell lines (HFF); assay: as above; type: cell-based; conditions: 150 μM; HFF cells
Experimental: as §5

[10] = BXPC3 (pancreas), KRAS wild type
[11] = Homo sapiens, HepG2, 96 h, read-out: Growth Inhibition (%) At 20 μM, HepG2 (Liver)
[12] = Homo sapiens, BXPC-3, 96 h, read-out: Growth Inhibition (%) At 20 μM, BxPC3 (Pancreas)
[13] = Homo sapiens, Capan-2, 96 h, read-out: Growth Inhibition (%) At 20 μM, Capan-2 (Pancreas)
[14] = Homo sapiens, HepG2; read-out: IC50 (μM), HepG2 (Liver), antiproliferative activity
[15] = Homo sapiens, BXPC-3; read-out: IC50 (μM), BxPC3 (Pancreas), antiproliferative activity
[16] = Homo sapiens, Capan-2; read-out: IC50 (μM), Capan-2 (Pancreas), antiproliferative activity

SMILES	inhibition at 20 µM [4]	inhibition at 20 µM [1, 11]	inhibition at 20 µM [5]	inhibition at 20 µM [2, 12]	inhibition at 20 µM [3, 13]	inhibition at 20 µM [6]	further results
CCCCCCCC(=O)Nc1ccn([C@@H]2O[C@H](CO)[C@@H](O)C2(F)F)c(=O)n1	–	–	–	–	–	–	pEC50 (pancreatic cancer cells): 4.00
Nc1ccn([C@@H]2O[C@H](CO)[C@@H](O)C2(F)F)c(=O)n1 [Gemcitabine, reference compound]	–	–	–	–	–	–	plateau of inhibition (FIG. 5) ([1]; HepG-2 (liver), KRAS mutation; first of the two plateaus named): 50%; growth inhibition (FIG. 5), in words [2, 10]: growth is blocked; growth inhibition (FIG. 5), in words ([3]; Capan-2): no growth inhibition; plateau of inhibition (FIG. 5) (Panc-1 (pancreas) cells; second of the two plateaus named): 30%
CC(C)OC(=O)[C@H](C)NP(=O)(OC[C@H]1O[C@@H](n2cnc3c(NCc4ccccc4)nc(Cl)nc32)[C@H](F)C1(C)COP(=O)(N[C@@H](C)C(=O)OC(C)C)Oc1ccccc1)Oc1ccccc1 (some centres unmarked) [LCB2076]	10%	0%	69%	25%	14%	–	–
COc1nc(Cl)nc2c1ncn2[C@@H]1O[C@H](COP(=O)(N[C@@H](C)C(=O)OC(C)C)Oc2ccccc2)C(C)(COP(=O)(N[C@@H](C)C(=O)OC(C)C)Oc2ccccc2)[C@H]1F (some centres unmarked) [LCB2079]	51%	72%	96%	40%	50%	70%	inhibition at 50 µM ([5]; 50 μM): > 96%
CC(C)OC(=O)[C@H](C)NP(=O)(OC[C@H]1O[C@@H](n2cnc3c(N)nc(Cl)nc32)[C@H](F)C1(C)COP(=O)(N[C@@H](C)C(=O)OC(C)C)Oc1ccccc1)Oc1ccccc1 (some centres unmarked) [LCB2080]	40%	0%	79%	16%	58%	34%	–
CC(C)OC(=O)[C@H](C)NP(=O)(OC[C@H]1O[C@@H](n2cnc3c(N)ncnc32)C(F)(F)C1(C)COP(=O)(N[C@@H](C)C(=O)OC(C)C)Oc1ccccc1)Oc1ccccc1 (some centres unmarked) [LCB2092]	60%	16%	54%	62%	48%	25%	–
CC(C)OC(=O)[C@H](C)NP(=O)(OC[C@H]1O[C@@H](n2cnc3c(N)ncnc32)C(F)(F)C1(C)CO)Oc1ccccc1 (some centres unmarked) [LCB2093]	28%	6%	14%	6%	22%	0%	–
CC(C)OC(=O)[C@H](C)NP(=O)(OC[C@H]1O[C@@H](n2cnc3c(NCc4ccccc4)ncnc32)C(F)(F)C1(C)COP(=O)(N[C@@H](C)C(=O)OC(C)C)Oc1ccccc1)Oc1ccccc1 (some centres unmarked) [LCB2095]	31%	0%	49%	67%	46%	3%	–
CC(C)OC(=O)[C@H](C)NP(=O)(OC[C@H]1O[C@@H](n2cnc3c(N)nc(Cl)nc32)C(F)(F)C1(C)COP(=O)(N[C@@H](C)C(=O)OC(C)C)Oc1ccccc1)Oc1ccccc1 (some centres unmarked) [LCB2105]	53%	–	–	47%	48%	–	–
CC(C)(CCC(CCSCc1ccc(C(F)(F)F)cc1)SCc1ccc(C(F)(F)F)cc1)CC(=O)Nc1ccn([C@H]2CC(O)[C@@H](CO)O2)c(=O)n1 (some centres unmarked) [LCB-2132]	–	–	–	–	–	–	EC90 activity against KRAS mutated cancer cell lines resistant to Gemcitabine [7]: show EC90 activity
CC(C)(CCC(CCSCc1ccc(C(F)(F)F)cc1)SCc1ccc(C(F)(F)F)cc1)CC(=O)Nc1ccn([C@@H]2O[C@H](CO)[C@@](C)(CO)C2(F)F)c(=O)n1 (stereo partly drawn) [LCB-2139, N-(1-((2R,4R,5S)-3,3-difluoro-4,5-bis(hydroxymethyl)-4-methyltetrahydrofuran-2-yl)-2-oxo-1,2-dihydropyrimidin-4-yl)-3,3-dimethyl-6,8-bis((4-(trifluoromethyl)benzyl)thio)octanamide]	–	–	–	–	–	–	IC50 [1, 14]: 8 µM; IC50 [2, 15]: 8 µM; IC50 [3, 16]: 8 µM
CC(C)(CCC(CCSCc1ccc(F)cc1)SCc1ccc(F)cc1)CC(=O)Nc1ccn([C@@H]2O[C@H](CO)[C@@](C)(CO)C2(F)F)c(=O)n1 (stereo partly drawn) [LCB-2140, N-(1-((2R,4R,5S)-3,3-difluoro-4,5-bis(hydroxymethyl)-4-methyltetrahydrofuran-2-yl)-2-oxo-1,2-dihydropyrimidin-4-yl)-6,8-bis((4-fluorobenzyl)thio)-3,3-dimethyloctanamide]	–	–	–	–	–	–	IC50 [1, 14]: 8 µM; IC50 [2, 15]: 8 µM; IC50 [3, 16]: 12.5 µM
CC(C)(CC[C@H](CCSCc1ccc(C(F)(F)F)cc1)SCc1ccc(C(F)(F)F)cc1)CC(=O)Nc1ccn([C@@H]2O[C@H](CO)[C@@](C)(CO)C2(F)F)c(=O)n1 [LCB-2151, (R)—N-(1-((2R,4R,5S)-3,3-difluoro-4,5-bis(hydroxymethyl)-4-methyltetrahydrofuran-2-yl)-2-oxo-1,2-dihydropyrimidin-4-yl)-3,3-dimethyl-6,8-bis((4-(trifluoromethyl)benzyl)thio) octanamide]	–	–	–	–	–	–	growth inhibition (FIG. 5), in words ([1]; HepG-2 (liver), KRAS mutation): block completely the growth; IC50 [1, 14]: 8 µM; growth inhibition (FIG. 5), in words [2, 10]: block completely the growth; IC50 [2, 15]: 5 µM; growth inhibition (FIG. 5), in words ([3]; Capan-2): block completely the growth; IC50 [3, 16]: 8 µM; growth inhibition (FIG. 5), in words (Panc-1 (pancreas) cells): block completely the growth; EC90 activity against KRAS mutated cancer cell lines resistant to Gemcitabine [7]: show EC90 activity
CC(C)OC(=O)[C@H](C)NP(=O)(OC[C@H]1O[C@@H](n2ccc(NC(=O)CC(C)(C)CC[C@H](CCSCc3ccc(C(F)(F)F)cc3)SCc3ccc(C(F)(F)F)cc3)nc2=O)[C@](C)(CO)[C@@H]1O)Oc1ccccc1 (stereo partly drawn) [LCB-2179, Isopropyl ((((2R,3S,4R,5R)-5-(4-(3,3-dimethyl-6,8-bis((4-(trifluoromethyl)benzyl)thio)octanamido)-2-oxopyrimidin-1(2H)-yl)-3-hydroxy-4-(hydroxymethyl)-4-methyltetrahydrofuran-2-yl)methoxy)(phenoxy)phosphoryl)-L-alaninate]	–	–	–	–	–	–	growth inhibition (FIG. 5), in words ([1]; HepG-2 (liver), KRAS mutation): block completely the growth; IC50 ([1]; Homo sapiens, HepG2, read-out: IC50 (μM), HepG2 (Liver), antiproliferative activity): 15 µM; growth inhibition (FIG. 5), in words [2, 10]: block completely the growth; IC50 ([2]; Homo sapiens, BXPC-3, read-out: IC50 (μM), BxPC3 (Pancreas), antiproliferative activity): 7 µM; growth inhibition (FIG. 5), in words ([3]; Capan-2): block completely the growth; IC50 ([3]; Homo sapiens, Capan-2, read-out: IC50 (μM), Capan-2 (Pancreas), antiproliferative activity): 15 µM; growth inhibition (FIG. 5), in words (Panc-1 (pancreas) cells): block completely the growth; EC90 activity against KRAS mutated cancer cell lines resistant to Gemcitabine [7]: show EC90 activity
CC(C)OC(=O)[C@H](C)NP(=O)(OC[C@H]1O[C@@H](n2ccc(N)nc2=O)[C@H](F)C1(C)CO)Oc1ccccc1 (some centres unmarked) [LCB-2187]	–	–	–	–	–	–	EC50 (HCMV/AD169; Human betaherpesvirus 5, AD169, HFF, read-out: EC50 (μM), antiviral effect): < 0.05 µM; EC90 (HCMV/AD169; Human betaherpesvirus 5, HCMV/AD169 in HFF cells): 0.25 µM; CC50 [8]: > 150 µM; cell death in presence of the tested compound [9]: no cell death
